Assay results: patent US20120035218A1, “PEST CONTROL COMPOSITION” (SUMITOMO CHEMICAL COMPANY, LIMITED, priority 2010, published 2012)

System: cat fleas
Assay: Cat flea emergence inhibition from eggs on treated flea-rearing medium
Format: in vivo
Conditions: 20 flea eggs, after approximately three weeks, corrected against acetone control
Procedure: Six gram quantities of medium for rearing fleas (mixed to make sand/powdered feed/dry yeast/dry bovine blood=80/16/3/1 wt %) were placed in vials. Acetone solutions were prepared so that the hydrazide compounds and pyriproxyfen would have the concentrations (wt % versus the medium) shown in Table 2 in the treated medium for rearing fleas. The medium was treated by 1.0 mL of the acetone solution, stirred until homogeneous, and dried. Filter paper (TOYO No. 2; 3.8 cm in diameter) was placed on aluminum dishes 3.8 cm in diameter, and 20 flea eggs were placed on the filter paper using a suitably moistened brush. A quantity of 1.0 g of the dried, treated medium was placed evenly on top of the filter paper on which the eggs rested, and the aluminum dishes were placed in resin petri dishes and stored at a temperature of 26° C. and humidity of 85-95%. Medium that had been treated only by acetone was also processed by the same method as a control group. After approximately three weeks, the emergence of the cat fleas was examined, and the emergence inhibition rate was calculated by the following formula.
Corrected emergency inhibition rate=(C−T)÷C×100
C: Emergence rate of untreated control group
T: Emergence rate of treated group

[1] = hydrazide compound 0.4 × 10^−4 % in combination with pyriproxyfen 10^−8 % (wt % versus the medium)
[2] = hydrazide compound alone, 0.4 × 10^−4 % (wt % versus the medium)

Row | SMILES | Emergence inhibition rate (%) [1] | Emergence inhibition rate (%) [2] | Emergence inhibition rate (%) (pyriproxyfen alone, 10^−8 % (wt % versus the medium))
1 | O=C(CCC(F)(F)F)NNc1cc(C2=NOC(c3cc(Cl)cc(Cl)c3)(C(F)(F)F)C2)ccc1Cl (centres unmarked) [Hydrazide compound (17), N′-{5-[5-(3,5-dichlorophenyl)-5-trifluoromethyl-4,5-dihydroisoxazol-3-yl]-2-chlorophenyl}-4,4,4-trifluorobutyrohydrazide] | 63% | 6.3% | –
2 | CN(NC(=O)CCC(F)(F)F)c1cc(C2=NOC(c3cc(Cl)cc(Cl)c3)(C(F)(F)F)C2)ccc1Cl (centres unmarked) [Hydrazide compound (31), N′-methyl-N′-{2-chloro-5-[5-(3,5-dichlorophenyl)-5-trifluoromethyl-4,5-dihydroisoxazol-3-yl]phenyl}-4,4,4-trifluorobutyrohydrazide] | 86% | 34% | –
3 | CC(COc1ccc(Oc2ccccc2)cc1)Oc1ccccn1 (centres unmarked) [Pyriproxyfen, 4-phenoxyphenyl=2-(pyridyloxy)propyl=ether, reference compound] | – | – | 4.0%
